The values below come from patent publication US12123017B2, “Composition and method for cultivation, expansion, preservation and/or cell pretreatment” (REGENERO S.A., priority 2017, dated 2024).

In this experiment the test system is Umbilical cord derived mesenchymal stem cells. As to the kind of experiment: Biopreservation of MSCs at 4° C. for three days (viability by trypan blue, adhesion, proliferation, migration). The following applies: 0.1 μM in CBS, P<0.01. It is filed as cell-based. As for the experimental part:
Approximately 200,000 umbilical cord derived mesenchymal stem cells were stored in 200 μl of commercial biopreservation solution (CBS) as a control and 200 μl of CBS supplemented with the medium supplement of the invention. The samples were kept at 4° C. for three days. Cells were resuspended in DMEM base, and viability was assessed by trypan blue exclusion assay. […] Cell adhesion was evaluated 24 hours after cells were seeded in 10 mm plates. […] Finally, the cells preserved with CBS proliferated less than those preserved in CBS with pterostilbene (FIG. 4D). Therefore, the solution of the invention improves the functionality of the cells after 3 days of biopreservation.

In the case of `COc1cc(/C=C/c2ccc(O)cc2)cc(OC)c1` [Pterostilbene], the “cell viability better compared to CBS alone” value is “approximately 10%”.
